# Assay results taken from PMC9913425, “Pentacyclic Triterpenoids-Based Ionic Compounds: Synthesis, Study of Structure–Antitumor Activity Relationship, Effects on Mitochondria and Activation of Signaling Pathways of Proliferation, Genome Reparation and Early Apoptosis” (Cancers, 2023).
# Columns and labels:
# [1] = tested on: Jurkat cells; assay: Apoptosis/necrosis induction (Annexin V Alexa Fluor488, 7AAD staining); format: cell-based; settings: compound at IC50 concentration, incubation 2 h
# Source text: Multiparametric evaluation of marker molecules, along with the detection of damage to the mitochondrial membrane, makes it possible to clearly determine the type of cell death. The method of cell staining with three different dyes (Annexin V Alexa Fluor488, 7AAD and MitoSense Red) provides simultaneous specification of various aspects of the state of the cell membrane, the state of DNA and the viability of mitochondria; together, it is a reliable sign of intrinsic and mitochondrial apoptosis pathway. Normal cells with intact mitochondrial membranes have high MitoSense Red fluorescence, while cells with decoupled oxidation and phosphorylation have much lower fluorescence. […]
# Figure 1 The ratio of the level of mito-damage and the level of apoptosis in Jurkat cells of ionic compounds based on ursolic, oleanolic and betulinic acids.
# [2] = tested on: K562; assay: In vitro cytotoxicity, IC50 by flow cytometry (Guava ViaCount); format: cell-based
# Procedure: (§1) Human cancer cell line HeLa, HL60, A2780 was obtained from the HPA Culture Collections (Salisbury, UK). Cells (Jurkat, K562, U937, Hek293, Fibroblasts) were purchased from Russian Cell Culture Collection (Institute of Cytology of the Russian Academy of Sciences, […], Russia) and cultured according to standard protocols and sterile technique. […] Cells were maintained in RPMI 1640 (Jurkat, K562, U937, HL60) (Gibco, Billings, MT, USA) supplemented with […], 10% FBS (Sigma) and 100 units/mL penicillin–streptomycin (Sigma). All types of cells were grown in an atmosphere of 5% CO2 at 37 °C. The cells were subcultured at 2–3 days intervals. Cells were then seeded in 24-well plates at 5 × 10^4 cells per well and incubated overnight. Jurkat, K562, U937, HL60 cells were subcultured at 2-day intervals with a seeding density of 1 × 10^5 cells per 24-well plates in RPMI with 10% FBS.
# (§2) The antitumor activity of the synthesized ionic compounds was initially assessed in vitro on Jurkat, K562, U937, HL60, HEK293, A2780 cell lines, including the determination of IC50 by flow cytometry involving Guava ViaCount (Millipore) reagent kits.
# [3] = tested on: U937; assay: as above; format: cell-based
# Procedure: as §1, §2
# [4] = tested on: HEK293; assay: as above; format: cell-based; settings: conditionally normal
# Procedure: as §1, §2
# [5] = tested on: Jurkat; assay: as above; format: cell-based; settings: Jurkat cells
# Procedure: as §1, §2
# [6] = tested on: HL60; assay: as above; format: cell-based, human
# Procedure: as §1, §2
# [7] = tested on: A2780; assay: as above; format: cell-based, human
# Procedure: as §1, §2
# [8] = tested on: mitochondria of Jurkat tumor cells; assay: Mitochondrial damage (MitoSense Red staining); format: cell-based; settings: compound at IC50 concentration, incubation 2 h
# [9] = Homo sapiens, U-937, U937 cells
# [10] = Homo sapiens, HEK293, HEK293 cells
# [11] = Homo sapiens, HL-60, HL60 cells
# [12] = Homo sapiens, A2780, A2780 cells
SMILES,Apoptosis (%) Early [1],Apoptosis (%) Late [1],Apoptosis (%) Necrosis [1],"IC50 ([2]; Homo sapiens, K562, K562 cells)","IC50 [3, 9]","IC50 [4, 10]","IC50 ([5]; Homo sapiens, Jurkat)","IC50 [6, 11]","IC50 [7, 12]",Mito-Damage (%) [8],percentage of cells in the apoptotic state [1],IC50 ([2]; K562 cells),IC50 ([3]; U937 cells),IC50 ([4]; HEK293 cells),IC50 [5],IC50 ([6]; HL60 cells),IC50 ([7]; A2780 cells)
"CC1(C)CC[C@]2(C(=O)OCCCCCC[N+]3(C)CCCCC3)CC[C@]3(C)C(=CCC4[C@@]5(C)CC[C@H](O)C(C)(C)C5CC[C@]43C)C2C1 (stereo partly drawn) [12b, 1-(6-{[(3β)-3-Hydroxyolean-12-en-28-oyl]oxy}hexyl)-1-methylpiperidinium bromide]",3.21%,18.13%,1.9%,21 ± 1 nM,19 ± 1 nM,76 ± 7 nM,9 ± 1 nM,24 ± 2 nM,34 ± 3 nM,23.49%,,,,,,,
"CC1(C)CC[C@]2(C(=O)OCCCCCC[N+]3(C)CCCC3)CC[C@]3(C)C(=CCC4[C@@]5(C)CC[C@H](O)C(C)(C)C5CC[C@]43C)C2C1 (stereo partly drawn) [12c, 1-(6-{[(3β)-3-Hydroxyolean-12-en-28-oyl]oxy}hexyl)-1-methylpyrrolidinium bromide]",0.7%,33.66%,0.99%,24 ± 1 nM,21 ± 1 nM,81 ± 8 nM,11 ± 1 nM,27 ± 2 nM,39 ± 4 nM,74.26%,35%,,,,,,
"CC1(C)CC[C@]2(C(=O)OCCCCCC[N+]3(C)CCOCC3)CC[C@]3(C)C(=CCC4[C@@]5(C)CC[C@H](O)C(C)(C)C5CC[C@]43C)C2C1 (stereo partly drawn) [12d, 4-(6-{[(3β)-3-Hydroxyolean-12-en-28-oyl]oxy}hexyl)-4-methylmorpholinium bromide]",0.0%,36.14%,22.63%,69 ± 3 nM,59 ± 3 nM,86 ± 8 nM,22 ± 2 nM,17 ± 1 nM,41 ± 4 nM,62.11%,,,,,,,
"CC[N+](CC)(CC)CCCCCCOC(=O)[C@]12CCC(C)(C)CC1C1=CCC3[C@@]4(C)CC[C@H](O)C(C)(C)C4CC[C@@]3(C)[C@]1(C)CC2 (stereo partly drawn) [12e, N,N,N-Triethyl-N-(6-{[(3β)-3-hydroxyolean-12-en-28-oyl]oxy}hexyl)-aminium bromide]",0.76%,76.0%,7.19%,13 ± 1 nM,10 ± 1 nM,34 ± 3 nM,7 ± 1 nM,3 ± 1 nM,16 ± 2 nM,97.3%,,,,,,,
"CC1(C)CC[C@]2(C(=O)OCCCCCC[N+](C)(C)CCO)CC[C@]3(C)C(=CCC4[C@@]5(C)CC[C@H](O)C(C)(C)C5CC[C@]43C)C2C1 (stereo partly drawn) [12f, N-(2-Hydroxyethyl)-N-(6-{[(3β)-3-hydroxyolean-12-en-28-oyl]oxy}hexyl)-N,N-dimethylaminium bromide]",0.0%,30.87%,54.23%,49 ± 2 nM,42 ± 2 nM,26 ± 2 nM,17 ± 1 nM,11 ± 1 nM,15 ± 1 nM,86.98%,85.10%,,,,,,
"Cn1cc[n+](CCCCCCOC(=O)C23CCC(C)(C)CC2C2=CCC4C5(C)CCC(O)C(C)(C)C5CCC4(C)C2(C)CC3)c1.[F][Sb-]([F])([F])([F])([F])[F] (stereo not drawn) [13b, 1-(6-{[(3β)-3-Hydroxyolean-12-en-28-oyl]oxy}hexyl)-3-methylimidazolium Hexafluoroantimonate]",2.35%,17.49%,4.68%,,,,,,,35.72%,,12 ± 1 nM,10 ± 1 nM,39 ± 3 nM,9 ± 1 nM,3 ± 1 nM,21 ± 2 nM
